Measured values as given in US5434295A (priority 1994, dated 1995).

Assays:
NMDA toxicity in mice = experiment: Prevention of NMDA neurotoxicity in mice (neurological scores); format: in vivo, mice (Balb/C); conditions: for maximum improvement of neurological scores: NMDA 60 mg/kg s.c., i.p. or i.v. pretreatment; for neurological scores/symptoms after NMDA toxicity: pretreated mice
Text: Blockade of NMDA toxicity in mice: Subcutaneous injection of NMDA in mice results in a dose-dependent increase in the number, severity and duration of several neurological symptoms, culminating in death at the higher dose range. The symptoms include tail flicks, circling, tremor and convulsions. The ability of various compounds, when administered to mice prior to NMDA, to reduce the number and severity of these symptoms is a considered a measure of their potency in preventing NMDA behavioral toxicity in vivo.
Test drugs were administered intraperitoneally at the stipulated doses in a solution of MCT oil. Each point represents the mean scores of eight mice treated with the drug compared to the same number of control animals receiving the vehicle alone.
Test compounds were administered at a standard dose of 10 mg/kg either intraperitoneally (in MCT oil) or intravenously (in a submicronized emulsion).
Bicyclic compounds of the present invention were tested for their ability to block NMDA toxicity in mice. Balb/C mice received NMDA by subcutaneous injection at a dose of 60 mg/kg which was determined to be the LD20 dose of this substance. Thirty minutes prior to injection of the neurotoxin the animals received either (a) an intravenous injection of the test drug formulated in submicronized emulsion as described in Example 11); (b) an intraperitoneal injection of the test drug dissolved in MCT oil; (c) or the appropriate vehicle alone (control groups). The improvement rate afforded by the test drug was defined as the difference between scores of animals receiving the formulated drug and those receiving the vehicle alone. The doses tested for HU-254, HU-259 and HU-260 ranged from 5 to 30 mg/kg.
At least 6-8 mice were included per test group. The materials were tested in a masked study to preclude bias of the observer of clinical symptoms.
The behavioral scoring method (tabulated above) was used as the basic quantitative procedure for evaluating the level of NMDA or kainic acid neurotoxicity in mice. The neurological clinical status of each animal was calculated by totalling the scores of all signs that were evident throughout the study. Duration of symptoms was also taken into account.
If duration of a neurological system is up to 30 seconds, the score is s-1. Duration between 0.5-3.0 mins, the score is s. Duration longer than 3 mins, the score is s+1.

Rat brain NMDA receptors = experiment: Blockade of NMDA response in Xenopus oocytes injected with rat brain RNA; format: biochemical
Text: Blockade of NMDA-induced voltage changes in Xenopus oocytes: Frog oocytes can be injected with genetic material from various species and organs, resulting in the expression of the various molecules encoded by this material in the oocyte. Injection of rat brain RNA provides active NMDA receptors on the ooctye surface. Application of NMDA results in changes in the electrical activity recorded from the oocytes. Various NMDA antagonists block the NMDA-induced changes in electrical activity and their potency and dose dependence in this system indicate their potency and mode of action as NMDA antagonists.
The oocyte is the most widely used system for studying the molecular, biophysical and pharmacological properties of expressed voltage- or transmitter-operated ion channels. This giant cell offers several advantages for this type of studies. It can be readily used for two-electrode voltage clamp studies, translates injected mRNA from different sources and functionally expresses the translated proteins, and it is also readily amenable for intracellular micron injections. Importantly, the recordings of neurotransmitter- or voltage-induced currents in a single oocyte are extremely stable and can performed repeatedly for 2-3 hours; this allows the performance of a full dose-response relation in single oocytes.
Rat brain NMDA receptors were expressed in Xenopus oocytes injected with total rat brain RNA. Dascal and Lotan. The conditions for injection culture and electrical recording from oocytes were as described by Dascal and Lotan (in: Methods in Molecular Biology, Longstaff and Revest, eds. Vol. 13, Chapter 13, Humana Press, N.J., 1992).
Briefly, female Xenopus were anesthetized by immersion in water containing 0.15% tricaine methanesulfonate and a small incision was made in the lower abdomen. Ovary fragments were removed into ND-96.
The oocytes were defolliculated by the collagenase treatment in order to remove the follicle cell layer. Defolliculated oocytes were injected with total rat brain RNA and incubated for 2-4 days at 22° C. in sterile NDE-96 solution. ND-96 solution contains (in mM): NaCl - 96, KCl - 2, CaCl2 - 1.8, Hepes - 5 (pH=7.4-7.6). NDE-96 contains in addition, 2.5 mM sodium pyruvate, 100 unit/ml penicillin, 100 μg/ml streptomycin. A single oocyte was placed in a 1 ml bath constantly superfused with ND-96 solution at room temperature. The cell was impaled with two microelectrodes and held at membrane potential of -60 mV using voltage clamp circuit.
RNA was extracted from the brain of 14-day old rat brain. Each oocyte was injected with 50 nl total RNA (4-8 mg/ml in water, stored at -80° C. in […] aliquots).
NMDA receptors were activated by application of NMDA with glycine in Mg-free ND-96 solution. It was shown previously and also observed in this study that the entry of calcium ions through the NMDA receptor-channel evokes a Ca-dependent Cl^- current which appeared as an early inward current peak preceding and overlapping the actual NMDA response and hindering a quantitative pharmacological study of NMDA antagonists. Experimental conditions were therefore worked out aimed at eliminating the Cl^- current. The best protocol employed the use of Ca-free, Ba-containing solution, avoiding repetitive application of antagonists, as well as other conditions including optimal perfusion rate and optimal intervals between repetitive NMDA applications.
Several NMDA receptor blockers were tested. These compounds have […] and have to be dissolved in 100% dimethyl sulfoxide (DMSO) and diluted for use in ND-96 that contained 1% DMSO. Therefore, the effect of 1% DMSO on the response to 10^-4 M NMDA and 5×10^-6 M glycine was examined. DMSO had no effect on NMDA response in three different cells.
Eight putative NMDA antagonists of the HU group, including 270, 271 and 259 were tested for anti-NMDA activity at a glutamate receptor. […]

Structure (SMILES)	maximum improvement of neurological scores (NMDA toxicity in mice)	neurological scores/symptoms after NMDA toxicity (NMDA toxicity in mice)	selectivity NMDA over AMPA/kainate receptors (Rat brain NMDA receptors)	% inhibition of NMDA (Rat brain NMDA receptors; 1 μM) [%]	% inhibition of NMDA (Rat brain NMDA receptors; 10 μM) [%]	mode of NMDA antagonism (Rat brain NMDA receptors; Lineweaver-Burke analysis)	concentration at which inhibitory activity was first apparent (Rat brain NMDA receptors; NMDA response) [nM]
CCCCCCC(C)(C)c1cc(OC(C)=O)c([C@H]2C=C(C(=O)O)[C@H]3C[C@@H]2C3(C)C)c(OC(C)=O)c1 [(+)-4-[4-DMH-2,6 diacetoxyphenyl]-2-carboxy-6,6-dimethylbicyclo[3.1.1]hept-2-en]	30-40%	improvement in neurological scores	selective for the NMDA over AMPA/kainate receptors	35	41	non-competitive NMDA antagonists	10
CCCCCCC(C)(C)c1cc(OC(C)=O)c([C@H]2C=C(C(=O)N(CC)CC)[C@H]3C[C@@H]2C3(C)C)c(OC(C)=O)c1 [HU-270]	30-40%	decreased neurological symptoms		20			
CCCCCCC(C)(C)c1cc(OC(C)=O)c([C@H]2C=C(C(=O)NCCO)[C@H]3C[C@@H]2C3(C)C)c(OC(C)=O)c1 [HU-271]	30-40%	decreased neurological symptoms		16	20		
